{"source": "patent US8741357B2", "about": "“Cosmetic or dermopharmaceutical composition comprising an euglena extract” (Sederma SAS, priority 2005, dated 2014)", "test_system": "Human keratinocytes", "assay": "de novo IP3 synthesis in KHN cells (RIA)", "format": "cell-based", "description": "The IP3 produced by the cell is extracted with perchloric acid and assay is conducted by a RIA method based on competition for a specific IP3 binding protein between radioactive IP3 and cell extract IP3. The intracellular IP3 is assayed after stimulation with the extract of Euglena, vs.control. The positive control consists in Platelet-Activating Factor (PAF).\nHuman keratinocytes were cultured and incubated to 90% confluence. The cells were incubated in the presence of extract of euglena at various concentrations or the control for 1 minute."}
{"substance": "Platelet-Activating Factor [PAF]", "values": [{"measurement": "IP3", "setting": "positive control, mean of n = 3", "value": 17.48, "unit": "pmol/mL"}, {"measurement": "Variation of IP3", "setting": "positive control, relative to control", "value": 515}, {"measurement": "IP3 production, result in words", "setting": "vs control", "value": "stimulated IP3 production"}]}
